Data as given in patent US20260356819A1, “OXOISOINDOLINYL-SUBSTITUTED […] DERIVATIVE AND USE THEREOF” (GLUETACS THERAPEUTICS (SHANGHAI) CO., LTD., priority 2023, published 2026).

Columns and labels:
Type in all cases: cell-based
Settings in all cases: compounds at 50 nM and 500 nM
IKZF1 = biological target: T1, IKZF1 (Homo sapiens, UniProt Q13422+Q96SW2); assay: Western blot degradation of IKZF1 in hPBMCs (24 h)
T1 construct: The supernatant was aspirated as the extracted total cell protein; endogenous in cells; host or cells: human peripheral blood mononuclear cells (hPBMCs)
T1 sequence (Q13422 whole entry): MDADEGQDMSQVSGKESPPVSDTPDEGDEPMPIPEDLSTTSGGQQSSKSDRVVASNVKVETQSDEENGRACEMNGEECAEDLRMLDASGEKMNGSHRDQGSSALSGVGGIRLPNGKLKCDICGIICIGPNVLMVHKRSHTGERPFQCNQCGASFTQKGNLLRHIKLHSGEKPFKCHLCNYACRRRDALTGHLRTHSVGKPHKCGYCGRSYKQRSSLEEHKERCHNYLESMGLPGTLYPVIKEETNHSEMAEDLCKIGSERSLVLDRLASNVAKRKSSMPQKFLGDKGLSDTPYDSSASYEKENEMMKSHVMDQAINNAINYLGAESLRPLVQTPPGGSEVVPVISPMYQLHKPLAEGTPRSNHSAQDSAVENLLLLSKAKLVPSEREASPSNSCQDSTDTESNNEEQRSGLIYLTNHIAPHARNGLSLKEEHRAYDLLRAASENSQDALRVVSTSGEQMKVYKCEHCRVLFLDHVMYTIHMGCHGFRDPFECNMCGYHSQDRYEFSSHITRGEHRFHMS
T1 sequence (Q96SW2 whole entry): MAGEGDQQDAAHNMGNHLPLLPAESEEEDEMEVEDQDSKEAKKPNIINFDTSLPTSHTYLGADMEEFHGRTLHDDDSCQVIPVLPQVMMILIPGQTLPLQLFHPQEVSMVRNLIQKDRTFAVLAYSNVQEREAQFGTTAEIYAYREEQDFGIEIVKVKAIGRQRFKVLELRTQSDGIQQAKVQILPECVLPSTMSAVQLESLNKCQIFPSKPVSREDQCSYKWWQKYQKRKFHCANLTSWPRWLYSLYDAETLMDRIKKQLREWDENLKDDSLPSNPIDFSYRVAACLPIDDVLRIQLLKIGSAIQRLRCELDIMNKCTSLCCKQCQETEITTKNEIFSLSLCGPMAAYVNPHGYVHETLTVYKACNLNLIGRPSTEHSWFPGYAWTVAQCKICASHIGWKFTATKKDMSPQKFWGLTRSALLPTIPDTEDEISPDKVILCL
T1 sequence (Q16531 whole entry partner): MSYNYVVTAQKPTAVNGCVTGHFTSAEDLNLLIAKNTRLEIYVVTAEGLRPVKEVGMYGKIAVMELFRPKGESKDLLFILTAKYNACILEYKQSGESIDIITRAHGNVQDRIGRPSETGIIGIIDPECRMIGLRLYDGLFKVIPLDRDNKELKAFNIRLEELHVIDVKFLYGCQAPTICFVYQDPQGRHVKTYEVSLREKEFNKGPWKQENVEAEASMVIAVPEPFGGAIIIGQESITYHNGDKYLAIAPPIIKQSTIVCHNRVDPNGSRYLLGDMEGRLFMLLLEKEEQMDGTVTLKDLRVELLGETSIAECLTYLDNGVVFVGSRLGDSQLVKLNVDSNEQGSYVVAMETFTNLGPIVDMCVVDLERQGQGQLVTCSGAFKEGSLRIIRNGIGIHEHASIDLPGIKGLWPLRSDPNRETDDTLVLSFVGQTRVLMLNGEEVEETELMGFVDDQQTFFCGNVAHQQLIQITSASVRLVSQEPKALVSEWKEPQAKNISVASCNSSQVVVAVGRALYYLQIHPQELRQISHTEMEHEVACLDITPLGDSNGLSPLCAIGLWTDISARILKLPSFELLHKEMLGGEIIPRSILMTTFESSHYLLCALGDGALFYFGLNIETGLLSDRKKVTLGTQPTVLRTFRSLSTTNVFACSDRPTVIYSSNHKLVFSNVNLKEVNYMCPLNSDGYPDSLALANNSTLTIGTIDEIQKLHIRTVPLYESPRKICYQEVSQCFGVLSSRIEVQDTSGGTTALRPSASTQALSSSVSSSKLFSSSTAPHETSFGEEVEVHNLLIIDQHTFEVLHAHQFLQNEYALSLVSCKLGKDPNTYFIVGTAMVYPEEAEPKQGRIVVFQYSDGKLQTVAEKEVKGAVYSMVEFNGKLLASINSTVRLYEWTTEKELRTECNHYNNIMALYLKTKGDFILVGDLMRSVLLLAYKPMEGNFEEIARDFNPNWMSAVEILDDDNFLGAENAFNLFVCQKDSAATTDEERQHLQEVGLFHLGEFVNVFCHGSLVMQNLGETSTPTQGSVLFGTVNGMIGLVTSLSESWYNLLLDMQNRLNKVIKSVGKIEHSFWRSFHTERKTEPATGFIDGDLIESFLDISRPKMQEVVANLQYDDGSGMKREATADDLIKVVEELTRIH
Protocol: (§1) Conventional Western blot assay was performed to evaluate the effects of the compounds of the present disclosure on the expression of target proteins in cells. • (1) Cell Seeding and Protein Harvesting: Human peripheral blood mononuclear cells (hPBMCs) at a density of 1×10^6 cells/mL were thawed according to the PBMC Recovery Protocol (Milecell Biotechnologies Inc, Shanghai). The cells were then treated with the compounds of the present disclosure (including the compounds listed in Table 1, and the Examples 1-498 compounds) at concentrations of 50 nM and 500 nM. Controls included a negative control (DMSO) and a positive control (the commercial immunomodulatory drug lenalidomide), both processed following the identical experimental protocol as the compounds of the present disclosure. After 24 hours of compounds treatment, cells were harvested and lysed in RIPA protein lysate containing protease inhibitors on ice for 30 min, followed by centrifugation. The supernatant was aspirated as the extracted total cell protein. The protein concentration of the supernatant was determined using the conventional BCA (Bicinchoninic Acid) assay. • (2) To the collected supernatant, 5×SDS sample loading buffer was added, followed by denaturation at 95 °C for 5 minutes. The denatured samples were then separated by SDS-PAGE electrophoresis on a polyacrylamide gel. Proteins were transferred to a nitrocellulose membrane (0.45 μm NC membrane), blocked with blocking buffer at room temperature for 1 hour, and subjected to antibody incubation and development procedures according to the antibody manufacturer's instructions (Cell Signaling Technology).
(§2) Half-Maximal Degradation Concentration value (the drug concentration required for degrading proteins by 50%, abbreviated as DC50) reads method: comparing the grayscale values of Western blot bands from drug-treated samples with those from blank DMSO-treated controls, and identifying the drug concentration range at which the grayscale value is half that of the DMSO-treated control bands.
(§3) DC50 values can be calculated using ImageJ software to measure grayscale values of Western blot bands from drug-treated samples. The concentration-response curve is fitted to estimate the drug concentration corresponding to half the grayscale value.
(§4) Target protein remaining (%) refers to the percentage of target protein remaining in cells after treatment with protein degrader compounds.
(§5) Calculation method for target protein remaining (%): Use ImageJ software to measure grayscale values of Western blot bands from drug (protein degrader)-treated samples. The grayscale value of drug-treated bands is divided by that of internal control protein bands, and the resulting quotient is normalized to obtain the relative percentage of remaining target protein after protein degrader treatment.
(§6) Target protein degradation rate (%)=1−target protein remaining (%).

IKZF3 = biological target: T2, IKZF3 (Homo sapiens, UniProt Q96SW2+Q9UKT9); assay: Western blot degradation of IKZF3 in hPBMCs (24 h)
T2 construct: The supernatant was aspirated as the extracted total cell protein; endogenous in cells; host or cells: human peripheral blood mononuclear cells (hPBMCs)
Protocol: as §1, §2, §3, §4, §5, §6

CK1α = biological target: T3, CK1α (Homo sapiens, UniProt P48729+Q96SW2); assay: Western blot degradation of CK1α in hPBMCs (24 h)
T3 construct: The supernatant was aspirated as the extracted total cell protein; endogenous in cells; host or cells: human peripheral blood mononuclear cells (hPBMCs)
T3 sequence (P48729 whole entry): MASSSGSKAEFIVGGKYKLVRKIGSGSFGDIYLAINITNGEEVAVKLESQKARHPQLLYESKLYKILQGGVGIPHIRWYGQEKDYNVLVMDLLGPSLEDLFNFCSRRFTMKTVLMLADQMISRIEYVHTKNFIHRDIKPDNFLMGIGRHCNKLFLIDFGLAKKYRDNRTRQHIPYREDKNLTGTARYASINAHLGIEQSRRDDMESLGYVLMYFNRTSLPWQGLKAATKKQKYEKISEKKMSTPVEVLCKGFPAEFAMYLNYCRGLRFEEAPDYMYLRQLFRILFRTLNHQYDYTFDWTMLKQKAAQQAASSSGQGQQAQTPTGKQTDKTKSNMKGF
T3 sequence (Q96SW2 whole entry): as the sequence (Q96SW2 whole entry) above
T3 sequence (Q16531 whole entry partner): as the sequence (Q16531 whole entry partner) above
Protocol: as §1, §2, §3, §4, §5, §6

IKZF2 = biological target: T4, IKZF2 (Homo sapiens, UniProt Q96SW2+Q9UKS7); assay: Western blot degradation of IKZF2 in hPBMCs (24 h)
T4 construct: The supernatant was aspirated as the extracted total cell protein; endogenous in cells; host or cells: human peripheral blood mononuclear cells (hPBMCs)
T4 sequence (Q9UKS7 whole entry): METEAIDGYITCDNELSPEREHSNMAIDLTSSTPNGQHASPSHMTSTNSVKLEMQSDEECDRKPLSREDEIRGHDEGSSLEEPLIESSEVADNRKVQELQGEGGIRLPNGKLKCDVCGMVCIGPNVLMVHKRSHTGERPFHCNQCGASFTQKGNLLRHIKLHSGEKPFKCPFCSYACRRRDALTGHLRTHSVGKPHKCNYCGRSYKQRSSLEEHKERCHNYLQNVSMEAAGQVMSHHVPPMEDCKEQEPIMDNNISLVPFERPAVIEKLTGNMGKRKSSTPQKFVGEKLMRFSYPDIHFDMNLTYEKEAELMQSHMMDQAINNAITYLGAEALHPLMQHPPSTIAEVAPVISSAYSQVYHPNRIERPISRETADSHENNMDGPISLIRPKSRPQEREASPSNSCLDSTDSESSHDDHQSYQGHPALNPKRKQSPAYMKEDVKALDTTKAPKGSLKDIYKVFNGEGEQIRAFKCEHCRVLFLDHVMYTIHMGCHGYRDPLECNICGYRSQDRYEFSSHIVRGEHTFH
T4 sequence (Q96SW2 whole entry): as the sequence (Q96SW2 whole entry) above
T4 sequence (Q16531 whole entry partner): as the sequence (Q16531 whole entry partner) above
Protocol: as §1, §2, §3, §4, §5, §6

GSPT1 = biological target: T5, GSPT1 (Homo sapiens, UniProt P15170+Q96SW2); assay: Western blot degradation of GSPT1 in hPBMCs (24 h)
T5 construct: The supernatant was aspirated as the extracted total cell protein; endogenous in cells; host or cells: human peripheral blood mononuclear cells (hPBMCs)
T5 sequence (P15170 whole entry): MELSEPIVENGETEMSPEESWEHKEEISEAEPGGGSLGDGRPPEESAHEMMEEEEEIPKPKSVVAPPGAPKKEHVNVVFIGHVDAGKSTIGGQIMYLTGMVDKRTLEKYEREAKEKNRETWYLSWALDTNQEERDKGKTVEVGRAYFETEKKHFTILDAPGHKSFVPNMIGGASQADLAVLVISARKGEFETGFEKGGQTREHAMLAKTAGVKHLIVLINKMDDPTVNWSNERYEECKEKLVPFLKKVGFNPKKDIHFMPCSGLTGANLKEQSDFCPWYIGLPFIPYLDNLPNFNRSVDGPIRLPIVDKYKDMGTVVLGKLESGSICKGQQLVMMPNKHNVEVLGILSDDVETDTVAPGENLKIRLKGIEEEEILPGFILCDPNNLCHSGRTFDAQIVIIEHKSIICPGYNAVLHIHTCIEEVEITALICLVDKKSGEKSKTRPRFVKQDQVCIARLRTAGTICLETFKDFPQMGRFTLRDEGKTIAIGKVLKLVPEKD
T5 sequence (Q96SW2 whole entry): as the sequence (Q96SW2 whole entry) above
T5 sequence (Q16531 whole entry partner): as the sequence (Q16531 whole entry partner) above
Protocol: as §1, §2, §3, §4, §5, §6

WEE1 = biological target: T6, WEE1 (Homo sapiens, UniProt P30291+Q96SW2); assay: Western blot degradation of WEE1 in hPBMCs (24 h)
T6 construct: The supernatant was aspirated as the extracted total cell protein; endogenous in cells; host or cells: human peripheral blood mononuclear cells (hPBMCs)
T6 sequence (P30291 whole entry): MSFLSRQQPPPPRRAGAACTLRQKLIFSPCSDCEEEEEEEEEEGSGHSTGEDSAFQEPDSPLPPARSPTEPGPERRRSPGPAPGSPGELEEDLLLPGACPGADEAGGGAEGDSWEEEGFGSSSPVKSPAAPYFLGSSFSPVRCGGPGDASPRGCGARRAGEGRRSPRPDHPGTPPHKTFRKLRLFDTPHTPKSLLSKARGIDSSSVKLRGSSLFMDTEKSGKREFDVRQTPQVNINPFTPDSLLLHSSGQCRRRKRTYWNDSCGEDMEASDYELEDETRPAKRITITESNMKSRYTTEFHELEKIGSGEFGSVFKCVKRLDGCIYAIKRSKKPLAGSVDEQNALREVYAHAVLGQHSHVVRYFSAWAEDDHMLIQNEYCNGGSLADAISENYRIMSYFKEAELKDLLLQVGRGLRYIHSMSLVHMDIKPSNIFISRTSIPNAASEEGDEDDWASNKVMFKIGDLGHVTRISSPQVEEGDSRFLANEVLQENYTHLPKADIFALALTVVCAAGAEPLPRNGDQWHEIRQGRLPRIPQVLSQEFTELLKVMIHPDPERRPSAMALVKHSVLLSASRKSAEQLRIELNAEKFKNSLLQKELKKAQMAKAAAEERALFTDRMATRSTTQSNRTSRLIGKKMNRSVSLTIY
T6 sequence (Q96SW2 whole entry): as the sequence (Q96SW2 whole entry) above
T6 sequence (Q16531 whole entry partner): as the sequence (Q16531 whole entry partner) above
Protocol: as §1, §2, §3, §4, §5, §6

SMILES	IKZF1 substrate protein remaining % (IKZF1)	IKZF3 substrate protein remaining % (IKZF3)	CK1α substrate protein remaining % (CK1α)	IKZF2 substrate protein remaining % (IKZF2)	GSPT1 substrate protein remaining % (GSPT1)	WEE1 substrate protein remaining % (WEE1)
O=C1CCN(N2Cc3cc(CN4CCN(c5ncccc5C(F)(F)F)CC4)ccc3C2=O)C(=O)N1 [GT-05174, 1-(1-oxo-5-((4-(3-(trifluoromethyl)pyridin-2-yl)piperazin-1-yl)methyl)isoindolin-2-yl)dihydropyrimidine-2,4(1H,3H)-dione]	B (80%< substrate protein remaining % ≤100%)	B (80%< substrate protein remaining % ≤100%)	B (80%< substrate protein remaining % ≤100%)	–	–	–
O=C1CCN(N2Cc3cc(CN4CCN(c5ccc(C(F)(F)F)cn5)CC4)ccc3C2=O)C(=O)N1 [GT-05176, 1-(1-oxo-5-((4-(5-(trifluoromethyl)pyridin-2-yl)piperazin-1-yl)methyl)isoindolin-2-yl)dihydropyrimidine-2,4(1H,3H)-dione]	B (80%< substrate protein remaining % ≤100%)	–	B (80%< substrate protein remaining % ≤100%)	B (80%< substrate protein remaining % ≤100%)	–	–
O=C1CCN(N2C(=O)c3ccc(CN4CCN(c5ccccn5)CC4)cc3C2=O)C(=O)N1 [GT-05351, 2-(2,4-dioxotetrahydropyrimidin-1(2H)-yl)-5-((4-(pyridin-2-yl)piperazin-1-yl)methyl)isoindoline-1,3-dione]	B (80%< substrate protein remaining % ≤100%)	B (80%< substrate protein remaining % ≤100%)	B (80%< substrate protein remaining % ≤100%)	A (0% ≤ substrate protein remaining % ≤80%)	–	–
O=C1CCN(N2C(=O)c3ccc(CN4CCN(c5cccc(Cl)n5)CC4)cc3C2=O)C(=O)N1 [GT-05353, 5-((4-(6-chloropyridin-2-yl)piperazin-1-yl)methyl)-2-(2,4-dioxotetrahydropyrimidin-1(2H)-yl)isoindoline-1,3-dione]	B (80%< substrate protein remaining % ≤100%)	B (80%< substrate protein remaining % ≤100%)	B (80%< substrate protein remaining % ≤100%)	B (80%< substrate protein remaining % ≤100%)	A (0% ≤ substrate protein remaining % ≤80%)	–
O=C1CCN(N2C(=O)c3ccc(CN4CCN(c5cc(Cl)ccn5)CC4)cc3C2=O)C(=O)N1 [GT-05354, 5-((4-(4-chloropyridin-2-yl)piperazin-1-yl)methyl)-2-(2,4-dioxotetrahydropyrimidin-1(2H)-yl)isoindoline-1,3-dione]	B (80%< substrate protein remaining % ≤100%)	–	B (80%< substrate protein remaining % ≤100%)	–	A (0% ≤ substrate protein remaining % ≤80%)	–
O=C1CCN(N2C(=O)c3ccc(CN4CCN(c5ncccc5F)CC4)cc3C2=O)C(=O)N1 [GT-05355, 2-(2,4-dioxotetrahydropyrimidin-1(2H)-yl)-5-((4-(3-fluoropyridin-2-yl)piperazin-1-yl)methyl)isoindoline-1,3-dione]	B (80%< substrate protein remaining % ≤100%)	B (80%< substrate protein remaining % ≤100%)	B (80%< substrate protein remaining % ≤100%)	–	A (0% ≤ substrate protein remaining % ≤80%)	B (80%< substrate protein remaining % ≤100%)
O=C1CCN(N2Cc3cc(CN4CCN(c5ncc(Cl)cc5Cl)CC4)ccc3C2=O)C(=O)N1 [GT-05356, 1-(5-((4-(3,5-dichloropyridin-2-yl)piperazin-1-yl)methyl)-1-oxoisoindolin-2-yl)dihydropyrimidine-2,4(1H,3H)-dione]	B (80%< substrate protein remaining % ≤100%)	B (80%< substrate protein remaining % ≤100%)	B (80%< substrate protein remaining % ≤100%)	–	–	–
O=C1CCN(N2Cc3cc(CN4CCN(c5nccc(F)c5F)CC4)ccc3C2=O)C(=O)N1 [GT-05357, 1-(5-((4-(3,4-difluoropyridin-2-yl)piperazin-1-yl)methyl)-1-oxoisoindolin-2-yl)dihydropyrimidine-2,4(1H,3H)-dione]	B (80%< substrate protein remaining % ≤100%)	B (80%< substrate protein remaining % ≤100%)	B (80%< substrate protein remaining % ≤100%)	B (80%< substrate protein remaining % ≤100%)	–	–
O=C1CCN(N2Cc3cc(CN4CCN(c5nccc(I)c5F)CC4)ccc3C2=O)C(=O)N1 [GT-05406, 1-(5-((4-(3-fluoro-4-iodopyridin-2-yl)piperazin-1-yl)methyl)-1-oxoisoindolin-2-yl)dihydropyrimidine-2,4(1H,3H)-dione]	B (80%< substrate protein remaining % ≤100%)	B (80%< substrate protein remaining % ≤100%)	B (80%< substrate protein remaining % ≤100%)	–	A (0% ≤ substrate protein remaining % ≤80%)	–
O=C1CCN(N2Cc3cc(CN4CCN(c5nccc(Cl)c5Br)CC4)ccc3C2=O)C(=O)N1 [GT-05432, 1-(5-((4-(3-bromo-4-chloropyridin-2-yl)piperazin-1-yl)methyl)-1-oxoisoindolin-2-yl)dihydropyrimidine-2,4(1H,3H)-dione]	B (80%< substrate protein remaining % ≤100%)	B (80%< substrate protein remaining % ≤100%)	B (80%< substrate protein remaining % ≤100%)	B (80%< substrate protein remaining % ≤100%)	–	A (0% ≤ substrate protein remaining % ≤80%)
O=C1CCN(N2Cc3cc(CN4CCN(c5ncc(C(F)(F)F)cc5Cl)CC4)ccc3C2=O)C(=O)N1 [GT-05433, 1-(5-((4-(3-chloro-5-(trifluoromethyl)pyridin-2-yl)piperazin-1-yl)methyl)-1-oxoisoindolin-2-yl)dihydropyrimidine-2,4(1H,3H)-dione]	B (80%< substrate protein remaining % ≤100%)	B (80%< substrate protein remaining % ≤100%)	B (80%< substrate protein remaining % ≤100%)	–	A (0% ≤ substrate protein remaining % ≤80%)	A (0% ≤ substrate protein remaining % ≤80%)
O=C1CCN(N2Cc3cc(CN4CCN(c5cccnc5)CC4)ccc3C2=O)C(=O)N1 [GT-05434, 1-(1-oxo-5-((4-(pyridin-3-yl)piperazin-1-yl)methyl)isoindolin-2-yl)dihydropyrimidine-2,4(1H,3H)-dione]	B (80%< substrate protein remaining % ≤100%)	B (80%< substrate protein remaining % ≤100%)	–	–	A (0% ≤ substrate protein remaining % ≤80%)	A (0% ≤ substrate protein remaining % ≤80%)
O=C1CCN(N2Cc3cc(CN4CCN(c5ccncc5Br)CC4)ccc3C2=O)C(=O)N1 [GT-05439, 1-(5-((4-(3-bromopyridin-4-yl)piperazin-1-yl)methyl)-1-oxoisoindolin-2-yl)dihydropyrimidine-2,4(1H,3H)-dione]	B (80%< substrate protein remaining % ≤100%)	–	–	B (80%< substrate protein remaining % ≤100%)	–	A (0% ≤ substrate protein remaining % ≤80%)
